Laboratory results: US20220324835A1 (Nurix Therapeutics, Inc., priority 2018, published 2022)

Key:
Cbl-b [1] = molecular target: T1, Cbl-b (Homo sapiens, UniProt Q13191); experiment: Cbl-b inhibition assay (Cbl-b activity assay, FRET, Biological Example 1; 100 mM NaCl, 60 nM Src kinase); assay type: biochemical; conditions: upper bound stated in text lists; read-out: IC50 values in the Cbl-b inhibition assay of Biological Example 1
Outline: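 Inhibitor activity is measured as reduced terbium-to-fluorescein FRET between streptavidin-terbium on biotinylated Cbl-b and Bodipy-fluorescein ubiquitin carried by an irreversible UbcH5B-Ub conjugate, binding of which depends on Src phosphorylation of Cbl-b.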

Cbl-b [2] = molecular target: T1, Cbl-b; experiment: Cbl-b activity assay (Cbl-b inhibition assay), TR-FRET of Cbl-b interaction with UbcH5B-Ub; assay type: biochemical
Outline: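 TR-FRET readout of Cbl-b binding to Bodipy-fluorescein N-terminally labeled Ub conjugated to UbcH5B C85K, measured with compound present. After compound incubation, 60 nM Src kinase with 1 mM ATP and 5 mM MgCl2 (final) was added for 1.5 h, then a further 1 h incubation; asterisked values used 50 mM NaCl buffer and 30 nM Src.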

Cbl-b (residues 36-427) = Cbl-b (residues 36-427) (Homo sapiens, UniProt Q13191); experiment: Cbl-b binding assay (SPR, Biacore T200); conditions: 20° C., 1:1 binding model
Chain of Cbl-b (residues 36-427) (Q13191 36-427): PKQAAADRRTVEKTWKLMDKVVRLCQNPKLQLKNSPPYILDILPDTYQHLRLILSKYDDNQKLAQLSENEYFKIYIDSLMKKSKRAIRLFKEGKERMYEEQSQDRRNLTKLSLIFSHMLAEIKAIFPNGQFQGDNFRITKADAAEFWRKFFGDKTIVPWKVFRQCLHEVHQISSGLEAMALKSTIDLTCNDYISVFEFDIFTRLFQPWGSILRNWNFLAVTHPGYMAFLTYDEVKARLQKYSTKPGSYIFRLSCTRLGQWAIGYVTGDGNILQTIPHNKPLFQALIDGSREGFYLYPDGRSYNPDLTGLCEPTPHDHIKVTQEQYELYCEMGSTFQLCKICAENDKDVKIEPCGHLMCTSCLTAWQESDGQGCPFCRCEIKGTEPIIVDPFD
Outline: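 Affinities derived from global 1:1 steady-state or kinetic fits of double-referenced, solvent-corrected SPR data, 20 °C, NeutrAvidin-capture chip. Compound series (top 100 or 50 μM, 8–10 points) injected 50 s, 90–180 s dissociation. Asterisked values used 50 mM instead of 100 mM NaCl and 30 nM Src kinase.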

[3] = assay buffer with 100 mM NaCl, 60 nM Src kinase, read-out: Cbl-b activity IC50

T1 sequence (Q13191 36-427): as above

Compound	IC50 (Cbl-b [1]) [µM]	IC50 (Cbl-b [2]; [3]) [µM]	Kd (Cbl-b (residues 36-427)) [µM]	IC50 (Cbl-b [2]; * assay buffer containing 50 mM NaCl instead of 100 mM NaCl and 30 nM Src kinase instead of 60 nM, read-out: Cbl-b activity IC50 (μM)*) [µM]
C[C@H](Cc1nncn1C)c1cccc(NC(=O)c2cc3ccccc3cn2)c1 [Compound 182, (R)-N-(3-(1-(4-methyl-4H-1,2,4-triazol-3-yl)propan-2-yl)phenyl)isoquinoline-3-carboxamide]	≤ 0.5	0.301 to 1	0.301 to 1	–
C[C@H](Cc1nncn1C)c1cccc(NC(=O)c2cc(N[C@H]3CC[C@@H](O)C3)ccn2)c1 [Compound 208, cis-4-(3-hydroxycyclopentylamino)-N-(3-((R)-1-(4-methyl-4H-1,2,4-triazol-3-yl)propan-2-yl)phenyl)picolinamide]	≤ 1	0.301 to 1	3 to 10	–
CC(CO)Nc1cc(C(C)Sc2nncn2C)cc(N2Cc3c(cccc3C(F)(F)F)C2=O)n1 (stereo not shown) [Compound 176, 2-[6-[(2-hydroxy-1-methyl-ethyl)amino]-4-[1-[(4-methyl-1,2,4-triazol-3-yl)sulfanyl]ethyl]-2-pyridyl]-4-(trifluoromethyl)isoindolin-1-one]	≤ 1	0.301 to 1	1 to 3	–
C[C@H](Cc1nncn1C)c1cccc(NC(=O)c2cc(C(=O)N3C[C@H](O)[C@@H](F)C3)ccn2)c1 [Compound 235, 4-[(3S,4S)-3-fluoro-4-hydroxypyrrolidine-1-carbonyl]-N-[3-[(2R)-1-(4-methyl-4H-1,2,4-triazol-3-yl)propan-2-yl]phenyl]pyridine-2-carboxamide]	≤ 10	1 to 3	3 to 10	–
C[C@H](Sc1nncn1C)c1ccnc(NC(=O)c2ccc3c(n2)CCCC3)c1 [Compound 108, (S)-N-(4-(1-((4-methyl-4H-1,2,4-triazol-3-yl)thio)ethyl)pyridin-2-yl)-5,6,7,8-tetrahydroquinoline-2-carboxamide]	≤ 10	1 to 3	3 to 10	–
C[C@H](Sc1nncn1C)c1cccc(NC(=O)c2cc(C(=O)N3C[C@@H](O)C[C@@H]3C)ccn2)c1 [Compound 154, 4-((2S,4S)-4-hydroxy-2-methylpyrrolidine-1-carbonyl)-N-(3-((S)-1-((4-methyl-4H-1,2,4-triazol-3-yl)thio)ethyl)phenyl)picolinamide]	≤ 10	3 to 10	> 10	–
C[C@H](Sc1nncn1C)c1ccnc(NC(=O)c2nc3ccccc3s2)c1 [Compound 121, N-[4-[(1S)-1-[(4-methyl-1,2,4-triazol-3-yl)sulfanyl]ethyl]-2-pyridyl]-1,3-benzothiazole-2-carboxamide]	≤ 10	3 to 10	3 to 10	–
C[C@H](Sc1nncn1C)c1cccc(NC(=O)c2cc(C(F)(F)F)c(Cl)cn2)c1 [Compound 40, (S)-5-Chloro-N-(3-(1-((4-methyl-4H-1,2,4-triazol-3-yl)thio)ethyl)phenyl)-4-(trifluoromethyl)picolinamide]	≤ 10	1 to 3	3 to 10	3 to 10
C[C@@H](Sc1nncn1C)c1ccnc(N2Cc3c(cccc3C(F)(F)F)C2=O)c1 [Compound 172b, (R)-2-(4-(1-((4-methyl-4H-1,2,4-triazol-3-yl)thio)ethyl)pyridin-2-yl)-4-(trifluoromethyl)isoindolin-1-one]	≤ 10	3 to 10	> 10	–
C[C@H](Cc1nncn1C)c1cc(N2Cc3c(cccc3C(F)(F)F)C2=O)ccc1F [Compound 280, 2-[4-fluoro-3-[(1R)-1-methyl-2-(4-methyl-1,2,4-triazol-3-yl)ethyl]phenyl]-4-(trifluoromethyl)isoindolin-1-one]	≤ 10	3 to 10	1 to 3	–
CC(C)c1nccc2c1CN(c1cccc([C@H](C)Cc3nncn3C)c1)C2=O [Compound 259, (R)-4-isopropyl-2-(3-(1-(4-methyl-4H-1,2,4-triazol-3-yl)propan-2-yl)phenyl)-2,3-dihydro-1H-pyrrolo[3,4-c]pyridin-1-one]	≤ 1	0.301 to 1	1 to 3	–
